Source: patent US20260216197A1, “WRN HELICASE INHIBITOR” (SUZHOU PUHE BIOPHARMA CO., LTD., priority 2022, published 2026)
Read-outs that look alike come from different tables or passages of the source.

Key:
[1] = Pharmacokinetic evaluation in mice; format: in vivo, CD1 female mice; conditions: for F: PO 10 mg/kg vs IV 2 mg/kg; for AUC(0-t): read-out: AUC0-24
Experimental: CD1 female mice were used as test animals and the drug was administered orally/intravenously (oral dosage: 10 mg/kg, intravenous dosage: 2 mg/kg).
Assay protocol: The oral group consisted of 3 mice per group (vehicle: 10% Hβ-CD-pH7.4), and the intravenous group consisted of 3 mice per group. […] The blood concentrations in plasma after oral and intravenous administration of mice were determined by LC/MS/MS, respectively.

[2] = test system: MSI-H colorectal cancer SW48 cell line; test: 2D anti-proliferative activity, MSI-H SW48 cells (CTG, 5 days); format: cell-based; conditions: for inhibition at 38.15 pM: 0.038146973 nM; for inhibition at 0.000152588 µM: 0.152587891 nM; for inhibition at 0.000610352 µM: 0.610351563 nM; for inhibition at 0.00244141 µM: 2.44140625 nM; for inhibition at 0.00976562 µM: 9.765625 nM; for inhibition at 0.0390625 µM: 39.0625 nM; for inhibition at 0.15625 µM: 156.25 nM; for inhibition at 0.625 µM: 625 nM; for inhibition at […]: 2500 nM; for inhibition at 10 µM: 10000 nM; for IC50: 5 days
Experimental: The molecules of the present disclosure were tested for their anti-proliferative activity against MSI-H tumor cells.
The proliferation of tumor cells with microsatellite instability MSI-H is sensitive to WRN inhibitors, while the proliferation of microsatellite stable (MSS) tumor cells is insensitive to WRN inhibitors. By testing the activities of the two, it is shown that the molecules of the present disclosure have an inhibitory and synthetic lethal effect on WRN at the cellular level.
(§1) The MSI-unstable SW48 colorectal cancer cells were cultured in RPMI 1640 medium containing 10% FBS and 1% penicillin-streptomycin in a 37° C., 5% CO2 constant temperature incubator. A 40 μL cell suspension was added to each well of a 384-well microplate. Using Echo, 40 nL of compounds at different concentrations was dispensed into each well, followed by incubation in a 37° C., 5% CO2 constant temperature incubator for 5 days. Then, 40 μL of CTG solution (Promega, Cat No. G7573) was added to each well, and the plate was incubated in the dark in a 37° C., 5% CO2 constant temperature incubator for 30 minutes. Luminescence was measured using an Envision multi-function microplate reader (Perkin Elmer, Model: Envision 2104). The luminescent signal was proportional to the amount of ATP in the system, and the amount of ATP directly represented the number of living cells in the system.

[3] = target: WRN helicase (Homo sapiens, UniProt Q14191); test: WRN helicase hydrolysis/unwinding of double-stranded DNA (fluorescence); format: biochemical
Experimental: The activity of the molecules of the present disclosure on the hydrolysis of double-stranded PP-6TR DNA by WRN helicase was tested.
The working solution and buffer were prepared, and the test compound was dissolved in DMSO followed by a4-fold dilution (with a final concentration of 10 μM as the starting concentration). Then, 0.2 μL of the test compound solution was added to a384-well plate, followed by 10 μL of (2×) WRN enzyme solution. The mixture was incubated in the dark for 30 minutes, after which 10 μL of substrate detection solution containing double-stranded DNA was added to initiate the reaction (DNA length: 19 bp, labeled with TAMRA at the 3′ end and BHQ2 at the 5′ end). The mixture was incubated at room temperature for 60 minutes. The inhibitory activity (IC50) against the WRN enzyme was calculated based on the fluorescence change (Ex530/Em590) between the blank group (DMSO) and the compound group.

[4] = test system: MSS colorectal cancer HT-29 cell line; test: 2D anti-proliferative activity, MSS HT-29 cells (CTG, 5 days); format: cell-based; conditions: Homo sapiens, 120 h
Experimental: The molecules of the present disclosure were tested for their anti-proliferative activity against MSS tumor cells.
as §1, with “MSS HT-29” for “MSI-unstable SW48”, “McCoy's 5A” for “RPMI 1640”

[5] = Liver microsome stability test; format: in vitro ADME; conditions: human liver microsomes 0.5 mg/mL, compound 1 μM, NADPH 1 mM, 60 minutes; for microsomal CLint at 1 μM: read-out: Human Clint μL/min/mg Protein
Experimental: The liver microsome stability test of the compounds is as follows:
The compounds of the present disclosure were subjected to a liver microsome stability test. The compounds to be tested were co-incubated with liver microsomes of different species with or without the addition of NADPH. The final concentration of the compounds to be tested in the test system was 1 μM, the final concentration of NADPH was 1 mM, and the final concentration of liver microsomes was 0.5 mg/mL.

[6] = Homo sapiens, read-out: Average value/ Inhibition rate
[7] = Homo sapiens, read-out: Test 1/ Inhibition rate
[8] = Homo sapiens, read-out: Test 2/ Inhibition rate
[9] = female, CD1, mouse, plasma, IV 2 mg/kg
[10] = female, CD1, mouse, plasma, PO 10 mg/kg

Chain of WRN helicase (Q14191 whole entry): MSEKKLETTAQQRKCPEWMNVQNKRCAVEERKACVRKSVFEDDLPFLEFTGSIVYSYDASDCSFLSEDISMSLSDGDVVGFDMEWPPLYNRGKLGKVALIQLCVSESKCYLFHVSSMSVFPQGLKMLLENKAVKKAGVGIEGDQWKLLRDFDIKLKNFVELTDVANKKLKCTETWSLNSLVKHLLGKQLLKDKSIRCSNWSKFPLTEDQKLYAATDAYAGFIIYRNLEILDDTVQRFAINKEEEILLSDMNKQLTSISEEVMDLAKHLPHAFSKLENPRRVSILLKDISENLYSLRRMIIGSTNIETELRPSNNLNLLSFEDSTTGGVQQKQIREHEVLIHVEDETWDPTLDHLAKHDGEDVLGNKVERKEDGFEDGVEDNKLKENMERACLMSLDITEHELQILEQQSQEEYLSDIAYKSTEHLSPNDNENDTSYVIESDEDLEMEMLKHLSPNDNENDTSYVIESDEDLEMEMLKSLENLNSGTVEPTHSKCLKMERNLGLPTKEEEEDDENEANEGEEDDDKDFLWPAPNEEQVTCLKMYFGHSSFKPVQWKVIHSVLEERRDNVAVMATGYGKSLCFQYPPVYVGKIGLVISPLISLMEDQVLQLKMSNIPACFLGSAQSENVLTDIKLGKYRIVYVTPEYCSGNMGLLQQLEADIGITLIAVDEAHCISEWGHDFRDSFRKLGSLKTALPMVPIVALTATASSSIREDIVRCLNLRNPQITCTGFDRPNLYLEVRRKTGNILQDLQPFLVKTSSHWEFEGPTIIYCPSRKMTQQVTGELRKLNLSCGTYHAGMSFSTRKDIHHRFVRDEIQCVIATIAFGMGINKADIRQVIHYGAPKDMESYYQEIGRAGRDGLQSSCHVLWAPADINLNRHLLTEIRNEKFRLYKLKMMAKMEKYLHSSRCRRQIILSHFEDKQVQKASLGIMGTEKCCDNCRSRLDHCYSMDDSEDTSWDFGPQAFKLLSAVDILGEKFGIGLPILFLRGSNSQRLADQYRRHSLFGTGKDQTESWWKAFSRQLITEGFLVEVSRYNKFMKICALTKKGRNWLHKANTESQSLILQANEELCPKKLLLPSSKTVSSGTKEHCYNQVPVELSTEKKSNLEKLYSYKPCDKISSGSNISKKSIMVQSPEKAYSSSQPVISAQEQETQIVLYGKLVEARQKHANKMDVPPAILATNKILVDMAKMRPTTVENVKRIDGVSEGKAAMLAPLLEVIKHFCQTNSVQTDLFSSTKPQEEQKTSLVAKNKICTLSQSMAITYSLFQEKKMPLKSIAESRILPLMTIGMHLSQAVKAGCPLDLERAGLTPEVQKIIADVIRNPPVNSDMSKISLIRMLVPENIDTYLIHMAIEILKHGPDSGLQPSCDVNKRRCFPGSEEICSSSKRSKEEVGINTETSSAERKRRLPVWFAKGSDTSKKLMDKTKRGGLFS

Work on `CCc1c(N2CCN(C(=O)c3ncccc3O)CC2)c(=O)n2nc(-c3cccnc3)nc2n1CC(=O)Nc1ccc(C(F)(F)F)cc1C` [Compound A1, reference compound] yielded an F [1] of 14%, an inhibition at 38.15 pM [2, 6] of -0.406% and an inhibition at 38.15 pM [2, 7] of -2%. It also gave an inhibition at 38.15 pM [2, 8] of 1.19%, an inhibition at 0.000152588 µM [2, 6] of -9.39% and an inhibition at 0.000152588 µM [2, 7] of -13.2%. It also gave an inhibition at 0.000152588 µM [2, 8] of -5.61%, an inhibition at 0.000610352 µM [2, 6] of -2.32% and an inhibition at 0.000610352 µM [2, 7] of -2.37%. The inhibition at 0.000610352 µM [2, 8] was -2.27%, the inhibition at 0.00244141 µM [2, 6] was -11.4% and the inhibition at 0.00244141 µM [2, 7] was -13.8%. For the same compound, the inhibition at 0.00244141 µM [2, 8] was -8.9%, the inhibition at 0.00976562 µM [2, 6] was -4.03% and the inhibition at 0.00976562 µM [2, 7] was 0.0311%. The inhibition at 0.00976562 µM [2, 8] was -8.09%, the inhibition at 0.0390625 µM [2, 6] was -11.9% and the inhibition at 0.0390625 µM [2, 7] was -12.6%. The inhibition at 0.0390625 µM [2, 8] was -11.1%, the inhibition at 0.15625 µM [2, 6] was 6.4% and the inhibition at 0.15625 µM [2, 7] was -2.14%. The inhibition at 0.15625 µM [2, 8] was 14.9%, the inhibition at 0.625 µM [2, 6] was 97.4% and the inhibition at 0.625 µM [2, 7] was 97.9%. It also gave an inhibition at 0.625 µM [2, 8] of 96.9%, an inhibition at […] [2, 6] of 101% and an inhibition at […] [2, 7] of 99.8%. For the same compound, the inhibition at […] [2, 8] was 101%, the inhibition at 10 µM [2, 6] was 102% and the inhibition at 10 µM [2, 7] was 101%. The inhibition at 10 µM [2, 8] was 102% and the IC50 ([2]; Homo sapiens, 120 h) was 261 nM.
`CCc1c(N2CCN(C(=O)c3ncccc3O)CC2)c(=O)n2nc(C3=CCOCC3)nc2n1CC(=O)NC12CC(C(F)(F)F)(C1)C2` [Compound A2, reference compound] showed an IC50 ([2]; Homo sapiens, 120 h) of 2540 nM and an IC50 [3] of 16 nM.
`CCc1c(N2CCN(C(=O)c3ncnc(C)c3O)CC2)c(=O)n2nc(C3=CCOCC3)nc2n1CC(=O)Nc1ccc(C(F)(F)F)cc1SC` [Compound H4] gave an IC50 [4] greater than 10000 nM, an IC50 ([2]; Homo sapiens, 120 h) of 2560 nM and an IC50 [3] of 71 nM.
`CCc1c(N2CCN(C(=O)c3ncnc(C)c3O)CC2)c(=O)n2nc(C3=CCOCC3)nc2n1CC(=O)Nc1ccc2c(c1)NCC2(O)C(F)(F)F` (stereo not drawn) [Compound H5] showed an IC50 [3] of 295 nM.
Work on `CCc1c(N2CCN(C(=O)c3ncnc(C)c3O)CC2)c(=O)n2nc(C3=CCOCC3)nc2n1CC(=O)Nc1ccc2c(C(F)(F)F)c[nH]c2c1` [Compound H6] yielded an IC50 [3] of 625 nM.
Work on `CCc1c(N2CCN(C(=O)c3ncccc3O)CC2)c(=O)n2nc(C3=CCOCC3)nc2n1CC(=O)Nc1ccc(C(F)(F)F)c2c1OCCO2` [Compound H7] yielded an IC50 ([2]; Homo sapiens, 120 h) of 1940 nM and an IC50 [3] of 9.5 nM.
`CCc1c(N2CCN(C(=O)c3ncnc(C)c3O)CC2)c(=O)n2nc(C3=CCC(OC)CC3)nc2n1CC(=O)Nc1ccc(C(F)(F)F)c2ccsc12` (stereo not drawn) [Compound H12] gave a CLint scaled at 1 μM [5] of 28 mL/min/kg, a microsomal CLint at 1 μM [5] of 22 µL/min/mg and an IC50 [4] greater than 10000 nM. The IC50 ([2]; Homo sapiens, 120 h) was 126 nM.
`CCc1c(N2CCN(C(=O)c3ncnc(C)c3O)CC2)c(=O)n2nc(C3=CCOCC3)nc2n1CC(=O)Nc1ccc(Br)c2ccsc12` [Compound H15] gave a CLint scaled at 1 μM [5] of 2.5 mL/min/kg, a microsomal CLint at 1 μM [5] of 2 µL/min/mg and an F [1] of 35%. For the same compound, the clearance [1, 9] was 50.4 mL/min/kg, the half-life [1, 9] was 18 min and the AUC(0-t) [1, 9] was 655 ng·h/mL. The C0 ([1]; female, CD1, mouse, plasma, IV 2 mg/kg, read-out: C0) was 1740 ng/mL, the half-life [1, 10] was 114 min and the AUC(0-t) [1, 10] was 1050 ng·h/mL. It also gave a Cmax ([1]; female, CD1, mouse, plasma, PO 10 mg/kg, read-out: Cmax) of 693 ng/mL, a Tmax ([1]; female, CD1, mouse, plasma, PO 10 mg/kg, read-out: Tmax) of 15 min and an IC50 [4] greater than 10000 nM. It also gave an IC50 ([2]; Homo sapiens, 120 h) of 101 nM.
In the case of `CCc1c(N2CCN(C(=O)c3ncnc(C)c3O)C[C@@H]2C)c(=O)n2nc(C3=CCOCC3)nc2n1CC(=O)Nc1ccc(C(F)(F)F)c2ccsc12` [Compound H17], the IC50 [4] is reported as greater than 10000 nM and the IC50 ([2]; Homo sapiens, 120 h) is reported as 123 nM.
`Cc1ncnc(C(=O)N2CCN(c3c(C4CC4)n(CC(=O)Nc4ccc(C(F)(F)F)c5ccsc45)c4nc(C5=CCOCC5)nn4c3=O)CC2)c1O` [Compound H18] showed an IC50 [4] greater than 10000 nM.
`CCc1c(N2CCN(C(=O)c3ncnc(C)c3O)CC2)c(=O)n2nc(C3=CCOCC3)nc2n1CC(=O)Nc1ccc(C(F)(F)F)c2scnc12` [Compound H21] gave a CLint scaled at 1 μM [5] of 6 mL/min/kg, a microsomal CLint at 1 μM [5] of 4.8 µL/min/mg and an IC50 [4] greater than 10000 nM. The IC50 ([2]; Homo sapiens, 120 h) was 175 nM.
Work on `CCc1c(N2CCN(C(=O)c3ncnc(C)c3O)CC2)c(=O)n2nc(C3=CCOCC3)nc2n1CC(=O)Nc1ccc2c3c1ncn3CCC2` [Compound H23] yielded an IC50 [4] greater than 10000 nM and an IC50 ([2]; Homo sapiens, 120 h) greater than 10000 nM.
`CCc1c(N2CCN(C(=O)c3ncnc(C)c3O)CC2)c(=O)n2nc(C3=CCOCC3)nc2n1CC(=O)Nc1ccc2c3c1ccn3CCC2` [Compound H24] gave an IC50 ([2]; Homo sapiens, 120 h) of 474 nM.
Compound `CCc1c(N2CCN(C(=O)c3ncnc(C)c3O)CC2)c(=O)n2nc(C3=CCOCC3)nc2n1CC(=O)Nc1ccc(Br)c2ccoc12` [Compound H25] has an IC50 ([2]; Homo sapiens, 120 h) of 125 nM.
`CCc1c(N2CCN(C(=O)c3ncnc(C)c3O)CC2)c(=O)n2nc(C3=CCOCC3)nc2n1CC(=O)Nc1ccc(Cl)c2ccoc12` [Compound H26] showed an IC50 ([2]; Homo sapiens, 120 h) of 137 nM.
`CCc1c(N2CC3(CN(C(=O)c4ncnc(C)c4O)C3)C2)c(=O)n2nc(C3=CCOCC3)nc2n1CC(=O)Nc1ccc(C(F)(F)F)cc1Cl` [Compound P1] gave an IC50 [3] of 3890 nM.
With `CCc1c(N2CCN(C(=O)c3ncccc3O)CC2)c(=O)n2nc(-c3cccs3)nc2n1CC(=O)Nc1ccc(C(F)(F)F)cc1Cl` [Compound P4] the IC50 [2] was 135 nM and the IC50 [3] was 1.9 nM.
In the case of `CCc1c(N2CCN(C(=O)c3ncccc3O)CC2)c(=O)n2nc(-c3cncs3)nc2n1CC(=O)Nc1ccc(C(F)(F)F)cc1Cl` [Compound P5], the IC50 ([2]; Homo sapiens, 120 h) is reported as 192 nM.
Work on `CCc1c(N2CCN(C(=O)c3ncccc3O)CC2)c(=O)n2nc(C3=CCS(=O)(=O)CC3)nc2n1CC(=O)Nc1ccc(C(F)(F)F)cc1Cl` [Compound P6] yielded an IC50 [3] of 3.5 nM.
